The target of assay [1] is T1, α/β hydrolase domain–containing protein 2 (ABHD2) (Homo sapiens, UniProt P08910).
T1 sequence (P08910 1-425): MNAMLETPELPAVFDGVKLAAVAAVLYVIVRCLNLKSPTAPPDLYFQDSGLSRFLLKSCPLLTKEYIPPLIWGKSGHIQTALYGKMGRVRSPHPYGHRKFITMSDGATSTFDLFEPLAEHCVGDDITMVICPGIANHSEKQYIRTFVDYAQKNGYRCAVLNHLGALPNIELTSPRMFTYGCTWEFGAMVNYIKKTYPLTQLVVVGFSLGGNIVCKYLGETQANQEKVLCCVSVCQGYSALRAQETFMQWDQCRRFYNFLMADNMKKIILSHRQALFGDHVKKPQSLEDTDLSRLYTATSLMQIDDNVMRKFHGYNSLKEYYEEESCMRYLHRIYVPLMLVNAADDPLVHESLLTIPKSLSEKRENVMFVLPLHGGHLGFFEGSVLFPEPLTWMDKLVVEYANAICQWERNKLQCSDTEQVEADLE
In words: monoacylglycerol hydrolysis by recombinant ABHD2. The format is cell-based.

The target of assay [2] is CatSper (Homo sapiens, UniProt Q7RTX7+Q86XQ3+Q8NEC5+Q96P56). The experiment in a line: whole-cell patch clamp of human spermatozoa. The format is cell-based. On the technique in general: In patch-clamp work, channel activity is measured electrically.
CatSper, sequence (Q8NEC5 whole entry): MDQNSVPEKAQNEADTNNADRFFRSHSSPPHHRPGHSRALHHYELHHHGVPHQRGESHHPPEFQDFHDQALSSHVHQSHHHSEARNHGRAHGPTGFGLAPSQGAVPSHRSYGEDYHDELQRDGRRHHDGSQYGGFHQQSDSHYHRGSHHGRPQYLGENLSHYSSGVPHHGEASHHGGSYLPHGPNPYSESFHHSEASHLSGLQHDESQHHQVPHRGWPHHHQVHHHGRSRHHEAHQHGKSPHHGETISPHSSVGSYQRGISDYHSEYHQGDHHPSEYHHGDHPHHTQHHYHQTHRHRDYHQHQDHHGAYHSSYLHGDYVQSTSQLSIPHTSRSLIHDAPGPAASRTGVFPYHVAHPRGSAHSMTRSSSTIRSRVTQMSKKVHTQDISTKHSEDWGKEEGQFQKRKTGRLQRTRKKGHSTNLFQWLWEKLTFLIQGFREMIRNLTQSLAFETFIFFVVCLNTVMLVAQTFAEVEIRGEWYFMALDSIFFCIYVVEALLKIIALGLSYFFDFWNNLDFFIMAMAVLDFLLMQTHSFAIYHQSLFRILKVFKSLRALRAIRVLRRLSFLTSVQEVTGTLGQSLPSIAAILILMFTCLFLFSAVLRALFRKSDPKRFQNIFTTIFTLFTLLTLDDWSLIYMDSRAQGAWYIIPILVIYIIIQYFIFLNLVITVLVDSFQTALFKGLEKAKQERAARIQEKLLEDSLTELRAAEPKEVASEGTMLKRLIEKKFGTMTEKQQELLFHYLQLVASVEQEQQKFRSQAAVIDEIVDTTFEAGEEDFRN
CatSper, sequence (Q96P56 whole entry): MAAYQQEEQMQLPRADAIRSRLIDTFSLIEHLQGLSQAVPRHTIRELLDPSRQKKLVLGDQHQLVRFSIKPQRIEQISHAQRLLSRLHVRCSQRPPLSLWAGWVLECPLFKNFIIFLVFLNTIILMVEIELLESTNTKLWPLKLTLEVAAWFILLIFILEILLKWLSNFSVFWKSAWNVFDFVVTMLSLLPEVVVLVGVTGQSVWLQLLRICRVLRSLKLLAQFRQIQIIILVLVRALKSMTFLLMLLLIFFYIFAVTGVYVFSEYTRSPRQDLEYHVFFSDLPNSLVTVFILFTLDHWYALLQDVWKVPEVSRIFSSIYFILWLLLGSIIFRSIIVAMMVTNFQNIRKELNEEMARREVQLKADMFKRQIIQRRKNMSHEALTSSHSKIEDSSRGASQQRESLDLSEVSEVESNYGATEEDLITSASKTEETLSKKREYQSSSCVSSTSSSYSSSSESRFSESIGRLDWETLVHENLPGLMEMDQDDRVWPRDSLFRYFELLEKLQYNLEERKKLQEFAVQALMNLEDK
CatSper, sequence (Q86XQ3 whole entry): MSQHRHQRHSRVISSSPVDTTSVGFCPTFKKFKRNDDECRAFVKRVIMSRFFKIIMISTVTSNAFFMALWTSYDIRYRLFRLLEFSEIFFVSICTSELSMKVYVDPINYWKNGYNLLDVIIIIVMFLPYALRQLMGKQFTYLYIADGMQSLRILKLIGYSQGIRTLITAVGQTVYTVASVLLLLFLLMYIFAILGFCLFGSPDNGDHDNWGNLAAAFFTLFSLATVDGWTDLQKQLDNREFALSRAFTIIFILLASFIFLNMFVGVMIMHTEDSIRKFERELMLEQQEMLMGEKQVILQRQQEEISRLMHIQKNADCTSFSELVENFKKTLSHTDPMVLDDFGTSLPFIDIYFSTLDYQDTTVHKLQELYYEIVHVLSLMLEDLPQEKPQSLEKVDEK
CatSper, sequence (Q7RTX7 whole entry): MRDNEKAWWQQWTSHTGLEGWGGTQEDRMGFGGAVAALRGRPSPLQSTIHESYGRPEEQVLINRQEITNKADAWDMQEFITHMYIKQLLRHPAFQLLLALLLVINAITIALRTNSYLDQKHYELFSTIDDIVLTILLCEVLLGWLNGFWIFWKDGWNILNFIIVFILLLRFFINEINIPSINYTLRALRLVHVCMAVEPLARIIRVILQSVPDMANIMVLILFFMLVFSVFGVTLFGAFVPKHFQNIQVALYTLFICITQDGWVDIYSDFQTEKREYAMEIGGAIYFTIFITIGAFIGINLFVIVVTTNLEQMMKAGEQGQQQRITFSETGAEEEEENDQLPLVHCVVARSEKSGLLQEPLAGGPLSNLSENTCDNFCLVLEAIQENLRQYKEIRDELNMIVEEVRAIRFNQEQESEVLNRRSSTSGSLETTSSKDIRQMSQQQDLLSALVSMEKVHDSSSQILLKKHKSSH

Regarding `CCCCC/C=C\C/C=C\C/C=C\C/C=C\CCCC(=O)OC(CO)CO` [2AG, 2-arachidonoylglycerol], the “monoacylglycerol hydrolysis by recombinant ABHD2 (free glycerol production) with” value in assay [1] was “ABHD2, which metabolizes endocannabinoids 1AG and 2AG only in the presence of progesterone”.

For the compound `CCCCC/C=C\C/C=C\C/C=C\C/C=C\CCCC(=O)OCC(O)CO` (centres unmarked) [1AG, 1-arachidonoylglycerol], the “whole-cell patch clamp of human spermatozoa” value in assay [2] was “whereas 1AG and 2AG (AGs) inhibited ICatSper”.

The record behind these values is paper PMC5373689 (Science (New York, N.Y.), 2016).
